Experiment [1] relates to human malignant mesothelioma cell line LO68. The experiment is described as follows: MTT cytotoxicity assay, 72 h, LO68. In kind it is cell-based. The settings on record: exposure time 72 h. Background: Formazan colour is commonly taken as a measure of viable cells.
For experiment [2], the system named is murine malignant mesothelioma cell line AB12. The experiment is described as follows: MTT cytotoxicity assay, 72 h, AB12. The conditions noted are these: exposure time 72 h. In kind it is cell-based, mouse.
Experiment [3] deals with panel of seven MPM cell lines. The experiment is described as follows: MTT cytotoxicity assay, 72 h, whole panel (summary ranges). Type of experiment: cell-based. The settings on record: read-out: cytotoxicity range across the cell line panel.
Text: Human malignant mesothelioma cancer cell lines JU77 and LO68 were obtained from Cell Bank Australia (Children's Medical Research Institute, Westmead, Australia). Mouse malignant mesothelioma cancer cell line AB12, human nonmalignant mesothelioma cancer cell line Met5A (mesothelial cells), mouse macrophage cell line J774 and human monocytic cell line THP-1 were obtained from American Type Culture Collection (ATCC) (Rockville, MD, USA). Human malignant mesothelioma cell lines VMC23 (epithelial), Meso82 (sarcomatous), Meso92 (biphasic), were kindly provided by Prof. Walter Berger (Medical University of Vienna). All cells except for J774 were cultured in RPMI and J774 cells were cultured in DMEM. Both types of media were supplemented with 10% FBS and 1% penicillin-streptomycin (10,000 U/mL). Cells were grown in tissue culture flasks (75 cm2 and 25 cm2, SPL Life Sciences Co., Ltd., Korea). All cell lines were grown at 37 °C in a humidified atmosphere of 95% air and 5% CO 2 and passaged when they reached 80–90% confluency. All Au stock solutions were prepared in 1% DMSO in the respected medium, ensuring that cell viability was not inhibited. […]
The cytotoxicity of compounds was determined using an MTT colorimetric test. […]
incubated for an additional 50 min. […] Optical densities were measured at 570 nm using a BioTek Synergy H1 microplate and MultiskanTM SkyHigh plate readers. […]
The test system of experiment [4] is patient-derived Meso84 cell line (sarcomatoid MPM). The experiment is described as follows: MTT cytotoxicity assay, 72 h, Meso84. Type of experiment: cell-based, human. The conditions noted are these: exposure time 72 h.
Text: (§1) Human malignant mesothelioma cancer cell lines JU77 and LO68 were obtained from Cell Bank Australia (Children's Medical Research Institute, Westmead, Australia). Mouse malignant mesothelioma cancer cell line AB12, human nonmalignant mesothelioma cancer cell line Met5A (mesothelial cells), mouse macrophage cell line J774 and human monocytic cell line THP-1 were obtained from American Type Culture Collection (ATCC) (Rockville, MD, USA). Human malignant mesothelioma cell lines VMC23 (epithelial), Meso82 (sarcomatous), Meso92 (biphasic), were kindly provided by Prof. Walter Berger (Medical University of Vienna). All cells except for J774 were cultured in RPMI and J774 cells were cultured in DMEM. Both types of media were supplemented with 10% FBS and 1% penicillin-streptomycin (10,000 U/mL). Cells were grown in tissue culture flasks (75 cm2 and 25 cm2, SPL Life Sciences Co., Ltd., Korea). All cell lines were grown at 37 °C in a humidified atmosphere of 95% air and 5% CO 2 and passaged when they reached 80–90% confluency. All Au stock solutions were prepared in 1% DMSO in the respected medium, ensuring that cell viability was not inhibited.
(§2) The cytotoxicity of compounds was determined using an MTT colorimetric test. The cells were harvested from culture flasks by trypsinization and seeded into Cellstar 96 -well microculture plates (Greiner Bio -One) at the seeding density of 6000 cells per well (6 × 10^4 cells/mL). After
(§3) the cells were allowed to resume exponential growth for 16 h, they were exposed to drugs at
(§4) different concentrations in media for 72 h. The drugs were diluted in a complete medium at the desired concentration added to each well (100 μL) and serially diluted in other wells. After exposure for 72 h, the media was replaced with MTT in media (5 mg/mL, 100 μL/well) and
(§5) incubated for an additional 50 min. Subsequently, the medium was aspirated, and the purple formazan crystals formed in viable cells were dissolved in DMSO (100 μL/well). Optical densities were measured at 570 nm using a BioTek Synergy H1 microplate and MultiskanTM SkyHigh plate readers. The quantity of viable cells was expressed in terms of treated/control (T/C) values in comparison to untreated control cells, and 50% inhibitory concentrations (IC 50) were calculated from concentration-effect curves by interpolation. An evaluation was based on means from at least three independent experiments, each comprising three replicat es per
(§6) DMSO had not impact on the cell viability at the concentrations used.
Experiment [5] concerns patient-derived Meso92 cell line (biphasic MPM). The experiment is described as follows: MTT cytotoxicity assay, 72 h, Meso92. Type of experiment: cell-based, human. The conditions noted are these: exposure time 72 h.
Text: Cell lines and culture conditions
(§7) Mouse malignant mesothelioma cancer cell line AB12, human nonmalignant mesothelioma cancer cell line Met5A (mesothelial cells), mouse macrophage cell line J774 and human monocytic cell line THP-1 were obtained from American Type Culture Collection (ATCC) (Rockville, MD, USA). Human malignant mesothelioma cell lines VMC23 (epithelial), Meso82 (sarcomatous), Meso92 (biphasic), were kindly provided by Prof. Walter Berger (Medical University of Vienna). All cells except for J774 were cultured in RPMI and J774 cells were cultured in DMEM. Both types of media were supplemented with 10% FBS and 1% penicillin-streptomycin (10,000 U/mL). Cells were grown in tissue culture flasks (75 cm2 and 25 cm2, SPL Life Sciences Co., Ltd., Korea). All cell lines were grown at 37 °C in a humidified atmosphere of 95% air and 5% CO 2 and passaged when they reached 80–90% confluency. All Au stock solutions were prepared in 1% DMSO in the respected medium, ensuring that cell viability was not inhibited. The Au concentration in the stock solutions was confirmed through inductively coupled plasma optical emission spectrometry. The stock solution of pemetrexed (10 mM) was prepared in Milli -Q water.
Inhibition of c ell viability assay
as §2, §3, §4, §5
Experiment [6] relates to AB12 cells phagocytosed by J774 macrophages. The experiment is described as follows: Phagocytosis assay, flow cytometry. The settings on record: AB12 treated 100 min at 5 × IC50 (72 h), 16 h with J774 macrophages. Type of experiment: cell-based, mouse. Put shortly:
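AB12 cells labelled with CellTracker Red CMTPX and J774 macrophages with CellTracker Green CMFDA; AB12 cells drug-treated 100 min, then co-incubated with macrophages 16 h at 37°C. Phagocytosis % by flow cytometry as double-positive macrophages over total macrophages.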
For orientation: In flow cytometry, cells or beads pass a laser one at a time.

Experiment [7] concerns human nonmalignant mesothelioma cell line Met5A. The experiment in a line: MTT cytotoxicity assay, 72 h, Met5A. Type of experiment: cell-based. The conditions noted are these: exposure time 72 h.
Text: Cell lines and culture conditions
as §7
Inhibition of c ell viability assay
as §2, §3, §4, §5
In experiment [8] the test system is human malignant mesothelioma cell line JU77. The experiment is described as follows: MTT cytotoxicity assay, 72 h, JU77. In kind it is cell-based. The settings on record: exposure time 72 h.
The subject of experiment [9] is HMGB1 in AB12 cells. The experiment is described as follows: HMGB1 detection, flow cytometry. The settings on record: AB12, 5 × IC50 (72 h), 240 min. In kind it is cell-based, mouse.
Experimental: AB12 cells were seeded into Cellstar 6-well plates (Greiner Bio-One) at a density of 5 × 10^5 cells per well (2 ml per well). The cells were allowed to resume exponential growth for 16 h. […] After the treatment, the supernatant was collected in 2 mL microtubes. The wells were washed with 1 ml of PBS, trypsinized with 300 μL of trypsin at 37 °C for 5 min and combined with the corresponding supernatant. The cell suspension was then centrifuged (300  g, 10 min), washed with PBS (2  1 ml). […] RT, washed once with 1 mL PBS and centrifuged (500  g, 10 min). Next, cells were incubated with HMGB1 antibody (Catalogue number: 3935, Cell Signaling Technology) at 4 °C overnight (1:500 dilution in PBS) and washed with 1 ml of PBS (500  g, 10 min). […] The cells were excited by the 488 nm laser, and fluorescence S24 page 25: emission was detected at 525/40 nm for FITC (CRT). The resulting dot blots were acquired from 10,000 events and quantified using Flowjo software (version 10.8.0, BD Biosciences, San Jose, CA, USA).
In experiment [10] the test system is patient-derived VMC23 cell line (epithelioid MPM). The experiment is described as follows: MTT cytotoxicity assay, 72 h, VMC23. Type of experiment: cell-based, human. The settings on record: exposure time 72 h.
Text: as §1, §2, §3, §4, §5, §6

Structures are written as SMILES.

The record followed here is PMC11887451, “Leveraging Immunogenic Cell Death to Enhance the Immune Response against Malignant Pleural Mesothelioma Tumors” (Journal of the American Chemical Society, 2025).

On to `Nc1nc2[nH]cc(CCc3ccc(C(=O)N[C@@H](CCC(=O)O)C(=O)O)cc3)c2c(=O)[nH]1` [Pemetrexed, pemetrexed, reference compound], for which the IC50 in [1] (Homo sapiens) was 94 ± 28 nM; in [2] (Mus musculus), 23 ± 7 nM; in experiment [3], 23 to 300 nM; in experiment [4] (Homo sapiens) it was 27 ± 2 nM; in experiment [5] (Homo sapiens) it was 140 ± 40 nM; in experiment [7] (Homo sapiens, MeT-5A) it was 300 ± 100 nM. The IC50 was 73 ± 14 nM in [8] (Homo sapiens) and 170 ± 40 nM in experiment [10] (Homo sapiens). Besides, the “phagocytosis / ICD response (in words)” value in experiment [6] is recorded as “failed to initiate any ICD response”. Further, in experiment [9], the “HMGB1 expression (in words)” value is “significant increase in HMGB1 expression”.

On to `F[P-](F)(F)(F)(F)F.c1cc[c]2c(c1)Nc1cccc[n+]1[Au-]21[S]C(=[N+]2CCCCCC2)[S]1` (stereo not drawn) [5G], for which the IC50 in experiment [1] was found to be 430 ± 50 nM; in experiment [2], 330 ± 90 nM; in [4], 300 ± 70 nM; in [5] it was 350 ± 40 nM; in experiment [7] it was 250 ± 50 nM; in [8] it was 220 ± 40 nM. This molecule displayed an IC50 in experiment [10] of 730 ± 160 nM. For the same molecule, the “phagocytosis / ICD response (in words)” value in experiment [6] is given as “substantial phagocytosis”.
